Source: patent US12077503B2, “Substituted cyclic amides and their use as herbicides” (FMC CORPORATION, priority 2015, dated 2024)

How the values were obtained:
Assay type in all cases: in vivo
[1] = tested on: redroot pigweed (Amaranthus retroflexus); assay: Test G Post-Emergence Protocol; details: Amaranthus retroflexus, post-emergence, 312 h; for pest or weed control at 15.625 g/ha: 15.625 g ai/ha, evaluated after 13 days (100=total damage to plant; 0=no damage to plant), read-out: Pigweed, Redroot damage rating; for pest or weed control at 62.5 g/ha: 62.5 g ai/ha, read-out: Pigweed, Redroot damage rating (100=total damage to plant; 0=no damage to plant); for pest or weed control at 62.5 g/ha / pest or weed control at 250 g/ha: evaluated after 13 days; for pest or weed control at 250 g/ha: 250 g ai/ha, read-out: damage to plant, Pigweed, Redroot (100=total damage to plant; 0=no damage to plant)
Procedure, shortened: (§1)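 Sow in soil; grow 8 d (24/16 °C, 14 h light, 65% humidity); spray 15.625/62.5/250 g/ha in acetone:water 50:50 + 0.5% Tween 20; grow on, water twice daily; score damage 0–100 at 13 d.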

[2] = tested on: velvetleaf (Abutilon theophrasti); assay: Test G Post-Emergence Protocol; details: Abutilon theophrasti, post-emergence, 312 h; for pest or weed control at 15.625 g/ha: 15.625 g ai/ha, evaluated after 13 days (100=total damage to plant; 0=no damage to plant), read-out: Velvetleaf damage rating; for pest or weed control at 62.5 g/ha: 62.5 g ai/ha, read-out: Velvetleaf damage rating (100=total damage to plant; 0=no damage to plant); for pest or weed control at 62.5 g/ha / pest or weed control at 250 g/ha: evaluated after 13 days; for pest or weed control at 250 g/ha: 250 g ai/ha, read-out: damage to plant, Velvetleaf (100=total damage to plant; 0=no damage to plant)
Procedure, shortened: as §1

[3] = tested on: barnyardgrass (Echinochloa crus-galli); assay: Test G Post-Emergence Protocol; details: Echinochloa crus-galli, post-emergence, 312 h; for pest or weed control at 15.625 g/ha: 15.625 g ai/ha, evaluated after 13 days (100=total damage to plant; 0=no damage to plant), read-out: Barnyardgrass damage rating; for pest or weed control at 62.5 g/ha: 62.5 g ai/ha, read-out: Barnyardgrass damage rating (100=total damage to plant; 0=no damage to plant); for pest or weed control at 62.5 g/ha / pest or weed control at 250 g/ha: evaluated after 13 days; for pest or weed control at 250 g/ha: 250 g ai/ha, read-out: damage to plant, Barnyardgrass (100=total damage to plant; 0=no damage to plant)
Procedure, shortened: as §1

[4] = tested on: giant foxtail (Setaria faberi); assay: Test G Post-Emergence Protocol; details: Setaria faberi, post-emergence, 312 h; for pest or weed control at 15.625 g/ha: 15.625 g ai/ha, evaluated after 13 days (100=total damage to plant; 0=no damage to plant), read-out: Foxtail, Giant damage rating; for pest or weed control at 62.5 g/ha: 62.5 g ai/ha, read-out: Foxtail, Giant damage rating (100=total damage to plant; 0=no damage to plant); for pest or weed control at 62.5 g/ha / pest or weed control at 250 g/ha: evaluated after 13 days; for pest or weed control at 250 g/ha: 250 g ai/ha, read-out: damage to plant, Foxtail, Giant (100=total damage to plant; 0=no damage to plant)
Procedure, shortened: as §1

[5] = tested on: ivy-leaved morning glory (Ipomoea hederacea); assay: Test G Post-Emergence Protocol; details: Ipomoea, post-emergence, 312 h; for pest or weed control at 15.625 g/ha: 15.625 g ai/ha, evaluated after 13 days (100=total damage to plant; 0=no damage to plant), read-out: Morningglory, Ivy-leaved damage rating; for pest or weed control at 62.5 g/ha: 62.5 g ai/ha, read-out: Morningglory, Ivy-leaved damage rating (100=total damage to plant; 0=no damage to plant); for pest or weed control at 62.5 g/ha / pest or weed control at 250 g/ha: evaluated after 13 days; for pest or weed control at 250 g/ha: 250 g ai/ha, read-out: damage to plant, Morningglory, Ivy-leaved (100=total damage to plant; 0=no damage to plant)
Procedure, shortened: as §1

[6] = tested on: corn (Zea mays); assay: Test G Post-Emergence Protocol; details: Zea mays, post-emergence, 312 h; for plant injury at 15.625 g/ha: 15.625 g ai/ha, evaluated after 13 days (100=total damage to plant; 0=no damage to plant), read-out: Corn damage rating; for plant injury at 62.5 g/ha: 62.5 g ai/ha, read-out: Corn damage rating (100=total damage to plant; 0=no damage to plant); for plant injury at 62.5 g/ha / plant injury at 250 g/ha: evaluated after 13 days; for plant injury at 250 g/ha: 250 g ai/ha, read-out: damage to plant, Corn (100=total damage to plant; 0=no damage to plant)
Procedure, shortened: as §1

[7] = tested on: redroot pigweed (Amaranthus retroflexus); assay: Test G Pre-Emergence Protocol; details: Amaranthus retroflexus, pre-emergence, 312 h, evaluated after 13 days; for pest or weed control at 15.625 g/ha: 15.625 g ai/ha; for pest or weed control at 15.625 g/ha / pest or weed control at 250 g/ha: read-out: Pigweed, Redroot damage rating (100=total damage to plant; 0=no damage to plant); for pest or weed control at 62.5 g/ha: 62.5 g ai/ha, 100=total damage to plant, 0=no damage to plant, read-out: plant damage rating, Pigweed, Redroot; for pest or weed control at 250 g/ha: 250 g ai/ha
Procedure, shortened: (§2)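 Under a 24/16° C day/night regime with 14 h light and 65% humidity, sown pots were sprayed after one day with compound (15.625, 62.5 or 250 g/ha; 50:50 acetone/water, 0.5% Tween 20). Damage was assessed visually 13 days later, 0 to 100.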

[8] = tested on: velvetleaf (Abutilon theophrasti); assay: Test G Pre-Emergence Protocol; details: Abutilon theophrasti, pre-emergence, 312 h, evaluated after 13 days; for pest or weed control at 15.625 g/ha: 15.625 g ai/ha; for pest or weed control at 15.625 g/ha / pest or weed control at 250 g/ha: read-out: Velvetleaf damage rating (100=total damage to plant; 0=no damage to plant); for pest or weed control at 62.5 g/ha: 62.5 g ai/ha, 100=total damage to plant, 0=no damage to plant, read-out: plant damage rating, Velvetleaf; for pest or weed control at 250 g/ha: 250 g ai/ha
Procedure, shortened: as §2

[9] = tested on: barnyardgrass (Echinochloa crus-galli); assay: Test G Pre-Emergence Protocol; details: Echinochloa crus-galli, pre-emergence, 312 h, evaluated after 13 days; for pest or weed control at 15.625 g/ha: 15.625 g ai/ha, read-out: Barnyard grass damage rating (100=total damage to plant; 0=no damage to plant); for pest or weed control at 62.5 g/ha: 62.5 g ai/ha, 100=total damage to plant, 0=no damage to plant, read-out: plant damage rating, Barnyardgrass; for pest or weed control at 250 g/ha: 250 g ai/ha, read-out: Barnyardgrass damage rating (100=total damage to plant; 0=no damage to plant)
Procedure, shortened: as §2

[10] = tested on: giant foxtail (Setaria faberi); assay: Test G Pre-Emergence Protocol; details: Setaria faberi, pre-emergence, 312 h, evaluated after 13 days; for pest or weed control at 15.625 g/ha: 15.625 g ai/ha; for pest or weed control at 15.625 g/ha / pest or weed control at 250 g/ha: read-out: Foxtail, Giant damage rating (100=total damage to plant; 0=no damage to plant); for pest or weed control at 62.5 g/ha: 62.5 g ai/ha, 100=total damage to plant, 0=no damage to plant, read-out: plant damage rating, Foxtail, Giant; for pest or weed control at 250 g/ha: 250 g ai/ha
Procedure, shortened: as §2

[11] = tested on: ivy-leaved morning glory (Ipomoea hederacea); assay: Test G Pre-Emergence Protocol; details: Ipomoea, pre-emergence, 312 h, evaluated after 13 days; for pest or weed control at 15.625 g/ha: 15.625 g ai/ha, read-out: Morning-glory, Ivy-leaved damage rating (100=total damage to plant; 0=no damage to plant); for pest or weed control at 62.5 g/ha: 62.5 g ai/ha, 100=total damage to plant, 0=no damage to plant, read-out: plant damage rating, Morningglory, Ivy-leaved; for pest or weed control at 250 g/ha: 250 g ai/ha, read-out: Morningglory, Ivy-leaved damage rating (100=total damage to plant; 0=no damage to plant)
Procedure, shortened: as §2

[12] = tested on: corn (Zea mays); assay: Test G Pre-Emergence Protocol; details: Zea mays, pre-emergence, 312 h, evaluated after 13 days; for plant injury at 15.625 g/ha: 15.625 g ai/ha; for plant injury at 15.625 g/ha / plant injury at 250 g/ha: read-out: Corn damage rating (100=total damage to plant; 0=no damage to plant); for plant injury at 62.5 g/ha: 62.5 g ai/ha, 100=total damage to plant, 0=no damage to plant, read-out: plant damage rating, Corn; for plant injury at 250 g/ha: 250 g ai/ha
Procedure, shortened: as §2

Cc1nc(NC(=O)[C@@H]2C(=O)N(C)C[C@H]2c2ccc(C(F)(F)F)cc2)ccc1F (racemic) [Compound 1613]
60%: pest or weed control at 250 g/ha [1] | pest or weed control at 250 g/ha [3]
20%: pest or weed control at 62.5 g/ha [2] | pest or weed control at 62.5 g/ha [3] | pest or weed control at 15.625 g/ha [4]
10%: pest or weed control at 250 g/ha [7] | pest or weed control at 250 g/ha [8]
50%: pest or weed control at 62.5 g/ha [1] | pest or weed control at 62.5 g/ha [10]
90%: pest or weed control at 250 g/ha [10]
80%: pest or weed control at 250 g/ha [4]
30%: pest or weed control at 250 g/ha [2]
70%: pest or weed control at 62.5 g/ha [4] | pest or weed control at 250 g/ha [9]
0%: pest or weed control at 15.625 g/ha [1] | pest or weed control at 15.625 g/ha [2] | pest or weed control at 15.625 g/ha [3] | pest or weed control at 15.625 g/ha [5] | pest or weed control at 62.5 g/ha [5] | pest or weed control at 250 g/ha [5] | plant injury at 15.625 g/ha [6] | plant injury at 62.5 g/ha [6] | plant injury at 250 g/ha [6] | pest or weed control at 15.625 g/ha [7] | pest or weed control at 62.5 g/ha [7] | pest or weed control at 15.625 g/ha [8] | pest or weed control at 62.5 g/ha [8] | pest or weed control at 15.625 g/ha [9] | pest or weed control at 62.5 g/ha [9] | pest or weed control at 15.625 g/ha [10] | pest or weed control at 15.625 g/ha [11] | pest or weed control at 62.5 g/ha [11] | pest or weed control at 250 g/ha [11] | plant injury at 15.625 g/ha [12] | plant injury at 62.5 g/ha [12] | plant injury at 250 g/ha [12]

CN1C[C@@H](c2ccc(C(F)(F)F)cc2)[C@H](C(=O)Nc2cc(O)nc(C(F)(F)F)n2)C1=O (racemic) [Compound 1614]
70%: pest or weed control at 250 g/ha [8]
0%: pest or weed control at 15.625 g/ha [1] | pest or weed control at 62.5 g/ha [1] | pest or weed control at 15.625 g/ha [2] | pest or weed control at 62.5 g/ha [2] | pest or weed control at 15.625 g/ha [3] | pest or weed control at 62.5 g/ha [3] | pest or weed control at 250 g/ha [3] | pest or weed control at 15.625 g/ha [4] | pest or weed control at 62.5 g/ha [4] | pest or weed control at 250 g/ha [4] | pest or weed control at 15.625 g/ha [5] | pest or weed control at 62.5 g/ha [5] | pest or weed control at 250 g/ha [5] | plant injury at 15.625 g/ha [6] | plant injury at 62.5 g/ha [6] | plant injury at 250 g/ha [6] | pest or weed control at 15.625 g/ha [7] | pest or weed control at 62.5 g/ha [7] | pest or weed control at 15.625 g/ha [8] | pest or weed control at 62.5 g/ha [8] | pest or weed control at 15.625 g/ha [9] | pest or weed control at 62.5 g/ha [9] | pest or weed control at 250 g/ha [9] | pest or weed control at 15.625 g/ha [10] | pest or weed control at 62.5 g/ha [10] | pest or weed control at 250 g/ha [10] | pest or weed control at 15.625 g/ha [11] | pest or weed control at 62.5 g/ha [11] | pest or weed control at 250 g/ha [11] | plant injury at 15.625 g/ha [12] | plant injury at 62.5 g/ha [12] | plant injury at 250 g/ha [12]
80%: pest or weed control at 250 g/ha [1] | pest or weed control at 250 g/ha [7]
20%: pest or weed control at 250 g/ha [2]
